This is an account of results in article PMC4607890, “The identification of novel Mycobacterium tuberculosis DHFR inhibitors and the investigation of their binding preferences by using molecular modelling” (Scientific Reports, 2015).

The term IC50 denotes the concentration that inhibits the measured activity by half.

Experiment [1] deals with M. tuberculosis H37Ra (ATCC 25177). The experiment is described as follows: Microbroth culture for bacteriostatic and bactericidal activity (OD readings, subculture on 7H10 agar). It counts as cell-based, Mycobacterium tuberculosis. The settings on record: Mtb H37Ra; for growth inhibition on the test strain: overall. The protocol:
The anti-mycobacterial activity of the compounds was tested by the measurement of OD readings and agar plate cultures. The test strain used was a stock culture of M. tuberculosis H37Ra (ATCC 25177) stored at −80 °C. Prior to testing, the stock culture was thawed and grown on Middlebrook 7H10 agar (Difco, USA) to check for viability and purity. To prepare the inoculum, a suspension of the culture in Middlebrook 7H9 broth (Difco, USA) was adjusted to a turbidity equivalent to McFarland standard no.1 and further diluted to a final concentration of approximately 10^5 cfu/ml. The compounds were dissolved in DMSO and diluted in 1% DMSO in 7H9 broth to obtain 100 μg/ml, 50 μg/ml, 10 μg/ml, 5 μg/ml 1 μg/ml and 0.1 μg/ml of compound. Each dilution was pipetted in 150 μl duplicates into a sterile 96-well microtitre plate. Three controls were set up with (a) 1% DMSO in 7H9 broth (b) 7H9 broth without DMSO and (c) p-amino salicylic acid (PAS) at 4 μg/ml (26.12 μM) in 7H9 broth with 1% DMSO. All wells were then inoculated with 10 μl of the mycobacterial culture at 10^5 cfu/ml, sealed with parafilm and incubated at 36 °C for 28 days. OD readings (at 630 nm wavelength) were taken daily using TECAN spectrophotometer with Magellan software version 7.1. In addition, on day 14 and day 28, 10 μl was removed from each well for subculturing on compound-free 7H10 agar plates which were incubated up to six weeks at 36 °C. The number, size and time of appearance of colonies in each subculture was recorded. A random sample of colonies was stained for acid-fastness to exclude non-mycobacterial contamination. […] Compounds showing less increase in OD readings than the no-compound controls but positive growth in the subcultures were deemed to have bacteriostatic activity.
For orientation: Broth dilution looks for growth in wells or tubes with falling amounts of substance.

Another experiment deals with T1, h-DHFR (Homo sapiens, UniProt P00374).
T1 construct: made in house
T1 sequence (P00374 1-187): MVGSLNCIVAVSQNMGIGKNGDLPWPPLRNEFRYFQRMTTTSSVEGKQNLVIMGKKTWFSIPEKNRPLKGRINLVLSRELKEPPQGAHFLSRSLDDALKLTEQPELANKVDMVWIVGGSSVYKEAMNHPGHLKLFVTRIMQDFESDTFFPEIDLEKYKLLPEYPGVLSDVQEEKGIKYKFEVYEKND
The experiment is described as follows: in vitro enzyme assay, recombinant h-DHFR (NADPH oxidation at 340 nm). Format: biochemical. The settings on record: recombinant enzyme 20 nM, 40 μM NADPH, 40 μM dihydrofolate, pH 7.0, 25 °C.

For another experiment, the target named is T2, mt-DHFR (Mycobacterium tuberculosis, UniProt P9WNX1).
T2 construct: made in house
Description: biochemical. Format: biochemical. The settings on record: for Ratio h-DHFR/mt-DHFR: ratio of IC50 values; for potency on mt-DHFR compared to h-DHFR: in vitro enzyme assays.

For another experiment, the system named is mt-DHFR against h-DHFR. More on the design: method as in PMID 17451962. The settings on record: TB5 Saccharomyces cerevisiae carrying DHFR genes; cited from earlier work.
Experiment [2] concerns human DHFR (h-DHFR) and mt-DHFR. The settings on record: cited from earlier work.
Where [3] appears, read: compound concentration 0.1 μg/ml.
Setting [4] is: compound concentration 10 μg/ml.
The mark [5] stands for this setting: compound concentration 50 μg/ml.
[6] abbreviates: compound concentration 100 μg/ml.

T2 sequence (P9WNX1 whole entry): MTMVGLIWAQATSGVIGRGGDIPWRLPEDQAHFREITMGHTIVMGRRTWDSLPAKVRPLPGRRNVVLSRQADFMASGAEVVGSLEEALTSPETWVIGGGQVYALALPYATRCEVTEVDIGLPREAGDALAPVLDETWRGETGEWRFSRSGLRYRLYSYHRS

Turning to `Nc1nc(N)c(-c2ccc(Cl)c(Cl)c2)c(COc2ccc([N+](=O)[O-])cc2)n1` [Compound 1], the “colony counts after four weeks of exposure” value (“colony counts” below) in experiment [1] (setting [3]), in experiment [1] (compound concentration 1 μg/ml), in experiment [1] (compound concentration 5 μg/ml), in experiment [1] (setting [4]), in experiment [1] (setting [5]) and in experiment [1] (setting [6]) was “+++” in each case. The half-maximal inhibitory concentration (IC50) on h-DHFR and on mt-DHFR was 130 nM each time. The “Ratio h-DHFR/mt-DHFR” value on mt-DHFR was 1.

As for `Nc1nc(N)c(-c2ccc(Cl)c(Cl)c2)c(COc2cccc3ccccc23)n1` [Compound 2], the “colony counts” value in experiment [1] (setting [3]) was “+++”; in experiment [1] (compound concentration 1 μg/ml) it was “+++”; in experiment [1] (compound concentration 5 μg/ml), “+++”; in experiment [1] (setting [4]), “+++”; in experiment [1] (setting [5]), “++ (++, 11–100 colonies)”; in experiment [1] (setting [6]), “++ (++, 11–100 colonies)”. The results for the IC50 at h-DHFR and against mt-DHFR were 70 nM and 110 nM, respectively. Also, the “Ratio h-DHFR/mt-DHFR” value at mt-DHFR came to 0.64.

For the compound `Nc1nc(N)c(-c2cccc(C(F)(F)F)c2)c(Cc2cccc(C(F)(F)F)c2)n1` [Compound 3], the “colony counts” value in experiment [1] (setting [3]) is “+++”; in experiment [1] (compound concentration 1 μg/ml), “+++”; in experiment [1] (compound concentration 5 μg/ml), “+++”; in experiment [1] (setting [4]), “+++”; in experiment [1] (setting [5]), “++ (++, 11–100 colonies)”; in experiment [1] (setting [6]), “+ (+, 1–10 colonies)”. The half-maximal inhibitory concentration (IC50) was found to be 135 nM at h-DHFR and 180 nM at mt-DHFR. At mt-DHFR, the “Ratio h-DHFR/mt-DHFR” value turned out to be 0.75.

`Nc1ccc(C(=O)Nc2ccc(OCc3nc(N)nc(N)c3-c3ccc(Cl)cc3)cc2)cc1` [Compound 4]: the “activity compared with PAS (4 μg/ml)” value in experiment [1] (100 μg/ml) is “better activity than PAS”. Also, the “bactericidal activity” value in experiment [1] (100 μg/ml) is on record as “bactericidal activity”. For the same compound, the “colony counts” value is “+++” in experiment [1] (setting [3]); “+++” in experiment [1] (compound concentration 1 μg/ml); “+++” in experiment [1] (compound concentration 5 μg/ml); “+++” in experiment [1] (setting [4]); “++ (++, 11–100 colonies)” in experiment [1] (setting [5]). Further, the half-inhibitory concentration (IC50) is 2500 nM on h-DHFR and 2600 nM against mt-DHFR. The “Ratio h-DHFR/mt-DHFR” value on mt-DHFR is 0.96.

With `CC(=O)Nc1cccc(OCc2cccc(N3C(=N)NC(=N)NC3(C)C)c2)c1` [Compound 5], the “colony counts” value in experiment [1] (setting [3]), in experiment [1] (compound concentration 1 μg/ml), in experiment [1] (compound concentration 5 μg/ml), in experiment [1] (setting [4]), in experiment [1] (setting [5]) and in experiment [1] (setting [6]) was “+++” each time.

In the case of `Nc1nc(N)c2c(ccc3c2ccn3Cc2cccc([N+](=O)[O-])c2)n1` [Compound 6], in experiment [1] (10 μg/ml (25.37 μM)), the “activity compared with PAS (4 μg/ml, 26.12 μM)” value was “same activity as PAS”. Also, the “colony count” value in experiment [1] (10 μg/ml (25.37 μM)) is on record as “notable reduction in colony count”. In addition, the “bactericidal activity” value in experiment [1] (50 μg/ml) is “bactericidal”; in experiment [1] (100 μg/ml) it was “bactericidal activity”. In addition, the “activity compared with PAS (4 μg/ml)” value in experiment [1] (100 μg/ml) is reported as “better activity than PAS”. In addition, the “colony counts” value in experiment [1] (setting [3]) is given as “+++”; in experiment [1] (compound concentration 1 μg/ml) it was “+++”; in experiment [1] (compound concentration 5 μg/ml), “+++”; in experiment [1] (setting [4]) it was “++ (++, 11–100 colonies)”. Also, the “growth inhibition on the test strain” value in experiment [1] is reported as “strongest bactericidal activity”. Besides, the results for the IC50 at h-DHFR and against mt-DHFR were 33 nM and 6 nM, respectively. In addition, the “inhibition of mt-DHFR” value against mt-DHFR (in vitro enzyme assay) is recorded as “most potent inhibitor of mt-DHFR”. On mt-DHFR, the “potency on mt-DHFR compared to h-DHFR” value is given as “more potent inhibitors of mt-DHFR compared to h-DHFR”. Moreover, the “Ratio h-DHFR/mt-DHFR” value at mt-DHFR was 5.5.

In the case of `Nc1nc(N)c2cc(S(=O)(=O)c3ccc(Cl)cc3)ccc2n1` [Compound 7], the “colony counts” value in experiment [1] (setting [3]), in experiment [1] (compound concentration 1 μg/ml), in experiment [1] (compound concentration 5 μg/ml), in experiment [1] (setting [4]), in experiment [1] (setting [5]) and in experiment [1] (setting [6]) was “+++” each time. Besides, the “growth inhibition on the test strain” value in experiment [1] was “least growth inhibition, affecting the colony size but not the colony count”. Moreover, the IC50 at h-DHFR came to 440 nM; on mt-DHFR, 63 nM. The “potency on mt-DHFR compared to h-DHFR” value at mt-DHFR is “more potent inhibitors of mt-DHFR compared to h-DHFR”. Besides, the “Ratio h-DHFR/mt-DHFR” value at mt-DHFR was found to be 6.98.

`Nc1nc(N)c2cc(Sc3ccc(Cl)cc3)ccc2n1` [Compound 8]: the “activity compared with PAS (4 μg/ml)” value in experiment [1] (100 μg/ml) is listed as “better activity than PAS”. Besides, the “bactericidal activity” value in experiment [1] (100 μg/ml) was “bactericidal activity”. Further, in experiment [1] (after exposure to 50 μg/ml), the “growth in the 14-day subculture” value is “did not grow”. Moreover, the “growth in the 28-day subculture” value in experiment [1] (after exposure to 50 μg/ml) is recorded as “formed abundant colonies”. In addition, the “colony counts” value in experiment [1] (setting [3]), in experiment [1] (compound concentration 1 μg/ml), in experiment [1] (compound concentration 5 μg/ml), in experiment [1] (setting [4]) and in experiment [1] (setting [5]) was “+++” throughout. The half-maximal inhibitory concentration (IC50) on h-DHFR stood at 100 nM; against mt-DHFR it was 40 nM. The “potency on mt-DHFR compared to h-DHFR” value at mt-DHFR is “more potent inhibitors of mt-DHFR compared to h-DHFR”. Moreover, on mt-DHFR, the “Ratio h-DHFR/mt-DHFR” value is given as 2.5.

Turning to `Nc1nc(N)c(-c2ccccc2)c(CC[C@@H](O)[C@@H](O)CO)n1` [El-7a], the “selectivity for inhibition effects on mt-DHFR against h-DHFR” value in the experiment with mt-DHFR against h-DHFR was “notable selectivity”.

As for `CN(Cc1cnc2nc(N)nc(N)c2n1)c1ccc(C(=O)N[C@@H](CCC(=O)O)C(=O)O)cc1` [MTX, Methotrexate], the “selectivity of binding h-DHFR vs mt-DHFR” value in experiment [2] is “without any significant selectivity”.

Consider `Nc1ccc(C(=O)O)c(O)c1` [PAS, p-amino salicylic acid, reference compound], for which, in experiment [1] (PAS 4 μg/ml (26.12 μM)), the “delay in the appearance of colonies” value is “two-week delay”, the “growth of colonies on 7H10 agar” value is “only scanty growth” and the reduction in growth entry is listed as “more than two-log reduction in growth”. In addition, in experiment [1] (PAS control at 4 μg/ml (26.12 μM)), the “colony counts” value was “++ (++, 11–100 colonies)”.
